For one data set, the target named is T1, PSMA (Homo sapiens, UniProt Q04609).
T1 construct: host or cells: LNCaP human prostate carcinoma cells
In words: Direct binding affinity on LNCaP cells (saturation). The note with it: [99mTc]TcO complex of the listed compound, saturation 0.3-40 nM, 1 h 37° C., mean ± SEM, read-out: Kd [nM] of [99mTc]TcO-complexes. The procedure: (§1) Competition, saturation and internalization assays were assessed using the high PSMA expressing human prostate carcinoma cell line LNCaP (ATCC® CRL-1740). The cells were grown as monolayer at 37° C. in a humidified atmosphere comprising 5% CO2 and 95% air in RPMI medium including 10% FCS (Merck KGAA, Germany). After washing the confluent cells twice with phosphate buffered saline (PBS) and detaching them with trypsin/EDTA (0.05%/0.02%), the cells were suspended in medium and counted (Casy TT, Omni Life Science, Germany).
For saturation monolayer of LNCaP cells were seeded, 5×10^4 cells/well in 48-well plates two days before the assay. On the day of saturation, after aspirating the medium, 160 μL of medium (for ^99mTc-labeled radioligand with D-mannitol (1 mg/mL)) were pipetted per well, for non-specific binding samples including 100 μM 2-PMPA. After preincubation for 5 min, 40 μL activity ([^68Ga]Ga-PSMA-11 or ^99mTc-labeled radioligand solution) were added (total volume/well: 200 μL). Eight concentrations ranged between 0.3 and 40 nM.
After 1 hour of incubation at 37° C. both for competition and saturation samples, the supernatants were aspirated and the cells washed twice with cold PBS. The cell lawn was lysed with 500 μL NaOH/SDS (0.1 M/1%) by shaking for 3 to 5 minutes. After transferring the lysates into measuring tubes, the activity of the samples was measured in a gamma counter (2480 Automatic Gamma Counter Wizard 2, Perkin Elmer, USA).
The half maximal inhibitory concentrations (IC50) and the dissociations constants (Kd) were calculated by fitting the data using a nonlinear curve-fitting program (GraphPad Prism 9). With the Kd value of [^68Ga]Ga-PSMA-11 on LNCaP and the known concentration of [^68Ga]Ga-PSMA-11 in the competition assay the inhibition constants (Ki) was also determined with the curve-fitting program.

For data set [1], the system named is subcutaneous LNCaP tumor xenografts. In words: SPECT/CT and PET/CT imaging in LNCaP tumor bearing mice. Format: in vivo. The note with it: LNCaP tumor bearing mice after 1 h and 4 h (FIG. 5). Here is the method:
A prostate cancer xenograft model was generated via subcutaneous injection of human LNCaP cells into the right shoulder of 8-12 week-old male nude mice (Rj:NMRI-Foxn1^nu/nu, Janvier Labs, Le Genest-Saint-Isle, France). Imaging studies were performed when tumors reached a diameter of >6 mm. General anesthesia was induced and maintained with inhalation of 10% (v/v) desflurane in […] oxygen/air. During anesthesia, animals were continuously warmed at 37° C.
Small animal single-photon emission computed tomography (SPECT) was performed using the nanoSPECT/CT scanner (Mediso Medical Imaging Systems) equipped with an APT63 aperture consisting of four M3 multi-pinhole collimators. Each animal received 30 MBq of ^99mTc-labeled compounds delivered in 0.2 mL of Dulbecco's phosphate-buffered saline as a single intravenous injection through a tail vein catheter. Photon emission was recorded using frame times of 60 s (1 h scan: 40-70 min), 90 s (4 h scan, 3.5-4.5 h), and 320 s (20 h scan, 18.5-21.5 h), and binned simultaneously within the 20% energy window of the 140.5 keV photopeak. With each SPECT scan, a corresponding CT image was recorded and used for anatomical referencing and attenuation correction. SPECT images were reconstructed using the Tera-Tomo™ three-dimensional (3D) algorithm at normal range with a voxel size of 0.4 mm and applying corrections for scatter attenuation, and decay.
Small animal positron emission tomography (PET) was performed using the nanoPET/CT scanner (Mediso Medical Imaging Systems). Each animal received 10 MBq of the radiolabeled reference compound [^68Ga]Ga-PSMA-11 delivered in Dulbecco's phosphate-buffered saline as a single intravenous injection through a tail vein catheter. Emission of the 511 keV annihilation photons was recorded continuously at a coincidence mode of 1:5 for 60 min following radiotracer injection. With each PET scan, a corresponding CT image was recorded and used for anatomical referencing and attenuation correction. Three-dimensional list mode data were binned using the 400-600 keV energy window. PET images of the 40-60 min time frame were reconstructed using the Tera-Tomo™ three-dimensional (3D) algorithm with a voxel size of 0.4 mm and applying corrections for random events, scatter, attenuation, and decay.
Three-dimensional VOIs were created applying fixed threshold for delineation of tumor (30%), muscle (0%); and kidneys (39%). Standardized uptake values (SUV=[MBq detected activity/mL tissue]/[MBq injected activity/g body weight], mL/g) were determined and reported as max SUV (VOI-maximum). Time-activity curves were generated and further analyzed using Prism (GraphPad Software, San Diego CA, USA).

The next data set concerns LNCaP cells. Kind of data set: Determination of the internalization (surface binding and internalized activity). Conditions: 1 h; for Internalization, 4° C. (% AD/mg Protein) / Internalization, 37° C. (% AD/mg Protein): cytosolic activity; for Internalization, 4° C. (% AD/mg Protein) / Internalization, 37° C. (% AD/mg Protein) / Binding, 4° C. (% AD/mg Protein) / Binding, 37° C. (% AD/mg Protein): 25 nM radioligand, mean ± SEM; for Binding, 4° C. (% AD/mg Protein) / Binding, 37° C. (% AD/mg Protein): surface-bound activity. Format: cell-based, human. The procedure:
as §1
For internalization LNCaP and PC3 cells were seeded, 1×10^5 cells/well in 24-well plates two days before the assay. On the day of internalization, after aspirating the medium, 100 μL of PBS and, for non-specific binding samples, 100 μL 2-PMPA (100 μM) were pipetted into the wells, followed by 400 μL medium including activity. The concentration of the ^99mTc-labeled radioligands was 25 nM. After 1 h of incubation at 37° C. and adjacent well plates at 4° C., the supernatant was removed and the cells washed with cold PBS. Surface-bound activity was stripped with 4° C. cold acid-wash buffer (0.2 M glycine, pH 2.8) for 5 min. The acid wash buffer was transferred from the plate wells to measuring tubes, as was the PBS buffer after washing once (binding on the surface). Cytosolic activity was determined after treatment with cell lysis buffer (0.1 M NaOH/1% SDS). Cell surface and cytosolic activity were measured separately in a gamma counter. Determination of protein content from cell lysate was performed using a spectrophotometer (NanoDrop, Thermo Fisher Scientific, USA) at an absorbance of 280 nm.

Data set [2] is described as follows: Product stability at room temperature (without addition of any media). Type of data set: physicochemical. The note with it: no media, radio-RP-HPLC. Here is the method: (§2) In brief, the freshly produced ^99mTc-labeled radioligand solution (10-20 MBq, 20-100 μL) was added to the respective medium (200-400 μL), vortexed quickly, and shook gently at the respective temperature mentioned below. At certain time points, samples were taken, diluted, and measured by radio-RP-HPLC. Hereby, investigation of plasma samples included protein precipitation with the 4-fold volume of an ice-cold mixture of methanol/water (4/1, v/v), intensive shaking (5 min) and centrifugation (14,000 rpm, 10 min), before inspection of the supernatant. In addition, the recovery of extracted activity was calculated after activity measurement of supernatant and residue by a gamma counter.

The nature of data set [3]: Product stability in DPBS at 25° C. Format: physicochemical. Conditions: DPBS (+Ca2+, +Mg2+), mean ± SD. The procedure: as §2
The mark [4] stands for this setting: normalized to fraction immediately after preparation.

The results in this text go back to patent US20250319213A1, “FUNCTIONALIZED BISAMINOTHIOL DERIVATIVES, COMPLEXES WITH THESE BISAMINOTHIOL DERIVATIVES AND USE OF SAID COMPLEXES AS DIAGNOSTICS AND THERAPEUTICS” (ABX ADVANCED BIOCHEMICAL COMPOUNDS – BIOMEDIZINISCHE …, priority 2022, published 2025).

Usually Kd stands for the constant that tells how readily two partners part at equilibrium.

T1 sequence (Q04609 whole entry): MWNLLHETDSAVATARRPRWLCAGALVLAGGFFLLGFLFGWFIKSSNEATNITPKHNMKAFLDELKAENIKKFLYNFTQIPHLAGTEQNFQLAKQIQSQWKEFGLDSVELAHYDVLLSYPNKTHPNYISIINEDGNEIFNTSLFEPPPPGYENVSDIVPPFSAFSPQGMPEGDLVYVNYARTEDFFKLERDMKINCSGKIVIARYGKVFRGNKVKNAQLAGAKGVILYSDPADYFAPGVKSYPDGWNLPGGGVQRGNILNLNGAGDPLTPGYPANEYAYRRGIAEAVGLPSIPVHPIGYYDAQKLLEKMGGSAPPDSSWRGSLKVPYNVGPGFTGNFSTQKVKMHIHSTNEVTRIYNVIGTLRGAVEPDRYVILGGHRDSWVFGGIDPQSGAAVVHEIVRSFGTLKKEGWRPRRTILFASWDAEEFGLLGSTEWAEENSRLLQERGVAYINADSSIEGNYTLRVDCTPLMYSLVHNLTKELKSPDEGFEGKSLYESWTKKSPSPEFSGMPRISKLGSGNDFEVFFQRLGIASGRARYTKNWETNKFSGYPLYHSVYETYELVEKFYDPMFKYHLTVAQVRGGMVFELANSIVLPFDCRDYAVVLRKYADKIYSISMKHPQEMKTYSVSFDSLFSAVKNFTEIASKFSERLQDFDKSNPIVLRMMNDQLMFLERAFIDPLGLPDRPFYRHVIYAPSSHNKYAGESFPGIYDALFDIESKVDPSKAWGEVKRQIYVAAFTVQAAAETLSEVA

Turning to `CC(C)(S)CNCCN(CCCCC(=O)N[C@H](Cc1ccc(O)c(I)c1)C(=O)N[C@H](Cc1ccccc1)C(=O)N[C@H](CCCCNC(=O)CCCCCCC(=O)NCCCC[C@H](NC(=O)N[C@@H](CCC(=O)O)C(=O)O)C(=O)O)C(=O)O)CC(C)(C)S` [Compound 4], at PSMA, the Kd turned out to be 4.7 ± 3.2 nM.
Take `O=C(O)CC[C@H](NC(=O)N[C@@H](CCCCNC(=O)CCCCCCC(=O)NCCCC[C@@H](NC(=O)[C@H](CCC(=O)O)NC(=O)[C@H](CCC(=O)O)NC(=O)CCC(=O)NCCCN1CC[S][99Tc]2(=[O])[S]CC[N]2CC1)C(=O)O)C(=O)O)C(=O)O` (some centres unmarked) [[^99mTc]TcO-6]: in data set [1], the “tumor-to-liver ratios among the [99mTc]-labeled radioligands” value is recorded as “a marked or a significant increase” and the “tumor-to-muscle ratios among the [99mTc]-labeled radioligands” value is “a marked or a significant increase”. Besides, in the data set with LNCaP cells, the “% Internalization, 37° C.” value came to 38.5%; the “Internalization, 4° C. (% AD/mg Protein)” value was 0.2 ± 0.0 % AD/mg Protein; the “Internalization, 37° C. (% AD/mg Protein)” value was found to be 2.9 ± 0.2 % AD/mg Protein; the “Binding, 4° C. (% AD/mg Protein)” value was found to be 2.5 ± 0.4 % AD/mg Protein. In addition, in the data set with LNCaP cells, the “Binding, 37° C. (% AD/mg Protein)” value was 4.7 ± 0.2 % AD/mg Protein. In addition, the “Fraction of radioligand at indicated time point after preparation, 0 h” value in data set [2] (0 h) is on record as 89%. The “Fraction of radioligand at indicated time point after preparation, 2 h” value in data set [2] (2 h) is on record as 87%. In data set [2] (4 h), the “Fraction of radioligand at indicated time point after preparation, 4 h” value is 88%. Further, the “Fraction of radioligand at indicated time point after preparation, 6 h” value in data set [2] (6 h) is on record as 85%. Further, in data set [3] (setting [4]), the “Fraction of radioligand in DPBS at 25° C., 1 h” value is 75.9 ± 0.2%; the “Fraction of radioligand in DPBS at 25° C., 2 h” value was 74.4 ± 0.1%; the “Fraction of radioligand in DPBS at 25° C., 20 h” value came out at 18.7%. The “Fraction of radioligand in DPBS at 25° C., after 6 h instead of 4 h” value in data set [3] (6 h (footnote &), normalized) was 72.3 ± 0.9%^&.
In the case of `CC1(C)CN(CCCCC(=O)N[C@H](Cc2ccc(O)c(I)c2)C(=O)N[C@H](Cc2ccccc2)C(=O)N[C@H](CCCCNC(=O)CCCCCCC(=O)NCCCC[C@H](NC(=O)N[C@@H](CCC(=O)O)C(=O)O)C(=O)O)C(=O)O)CC[N]2CC(C)(C)[S][99Tc]2(=[O])[S]1` (some centres unmarked) [[^99mTc]TcO-4], in the data set with LNCaP cells, the “% Internalization, 37° C.” value turned out to be 39.2%; the “Internalization, 4° C. (% AD/mg Protein)” value worked out at 0.2 ± 0.0 % AD/mg Protein; the “Internalization, 37° C. (% AD/mg Protein)” value was 1.9 ± 0.9 % AD/mg Protein; the “Binding, 4° C. (% AD/mg Protein)” value is on record as 2.2 ± 0.1 % AD/mg Protein. The “Binding, 37° C. (% AD/mg Protein)” value in the data set with LNCaP cells worked out at 2.9 ± 0.5 % AD/mg Protein. In data set [3] (setting [4]), the “Fraction of radioligand in DPBS at 25° C., 1 h” value stood at 88.4 ± 14.8%; the “Fraction of radioligand in DPBS at 25° C., 2 h” value was found to be 100 ± 1.8%; the “Fraction of radioligand in DPBS at 25° C., 20 h” value is 98.0 ± 1.0%. Further, the “Fraction of radioligand in DPBS at 25° C., 4 h” value in data set [3] (4 h, normalized to fraction immediately after preparation) is on record as 105.5%.
In the case of `CC(C)(S)CNCCN(CCCCC(=O)N[C@@H](Cc1ccccc1)C(=O)N[C@@H](Cc1ccccc1)C(=O)N[C@H](CCCCNC(=O)CCCCCCC(=O)NCCCC[C@H](NC(=O)N[C@@H](CCC(=O)O)C(=O)O)C(=O)O)C(=O)O)CC(C)(C)S` [Compound 2], on PSMA, the Kd was found to be 32.1 ± 24.3 nM.
`O=C(O)CC[C@H](NC(=O)N[C@@H](CCCCNC(=O)CCCCCCC(=O)NCCCC[C@@H](NC(=O)[C@H](CCC(=O)O)NC(=O)[C@H](CCC(=O)O)NC(=O)CCC(=O)NCCCN(CCS)CCNCCS)C(=O)O)C(=O)O)C(=O)O` [Compound 6]: the dissociation constant (Kd) on PSMA was 7.3 nM.
With `O=C([O-])CN(CCN(CC(=O)[O-])Cc1cc(CCC(=O)NCCCCCC(=O)NCCCC[C@H](NC(=O)N[C@@H](CCC(=O)O)C(=O)O)C(=O)O)ccc1[O-])Cc1cc(CCC(=O)O)ccc1[O-].[68Ga+3].[OH3+]` [^68Ga-PSMA11, reference compound], in the data set with LNCaP cells, the “% Internalization, 37° C.” value is on record as 40.3%; the “Internalization, 4° C. (% AD/mg Protein)” value came to 0.1 ± 0.0 % AD/mg Protein; the “Internalization, 37° C. (% AD/mg Protein)” value came to 0.5 ± 0.2 % AD/mg Protein; the “Binding, 4° C. (% AD/mg Protein)” value was determined as 0.3 ± 0.4 % AD/mg Protein. Further, the “Binding, 37° C. (% AD/mg Protein)” value with LNCaP cells came to 0.8 ± 0.2 % AD/mg Protein.
